≈ marks a conversion by molar mass, not a printed value.
How the values were obtained:
Format in all cases: cell-based
Candida Albicans = assay: MIC against a single isolate (Example 26); conditions: single isolate, read-out: C. albicans MIC
Method: (§1) Bacterial strains evaluated in this study include Escherichia coli, Klebsiella spp, Serratia marcescens, Proteus mirabilis/vulgaris, Citrobacter spp, Providencia spp, Morganella morganii, Pseudomonas aeruginosa, Staphylococcus aureus (MRSA only), and Enterococcus faecalis. Nu-8 test solutions are adjusted to pH 3.5 with citric acid, and MIC is evaluated per the CLSI methods in Mueller-Hinton broth supplemented accordingly to facilitate growth of specific strains.
(§2) MIC was determined as per Example 9 using LAI-101, LAI-102, Nu-10, LAI-105, LAI-106, Nu-3, and Nu-8 against a single isolate of Escherichia coli. Pseudomonas aeruginosa, Staphylococcus aureus (MRSA only), and Candida Albicans. For all microbe species, the LAI-101, LAI-102, Nu-10, LAI-105, and LAI-106 all perform at least as well as, and in many experiments better than, Nu-8 and Nu-3, which are both already quite active compounds.

Escherichia coli = assay: MIC against a single isolate (Example 26); conditions: single isolate, read-out: E. coli MIC
Method: as §1, §2

Pseudomonas aeruginosa = assay: MIC against a single isolate (Example 26); conditions: single isolate, read-out: P. aeruginosa MIC
Method: as §1, §2

[1] = system: Staphylococcus aureus (MRSA only); assay: MIC against a single isolate (Example 26); conditions: single isolate, read-out: S. aureus MIC
Method: as §1, §2

E. coli (ATCC 25922) = assay: Time kill assay in saline at pH 3.5 (Example 27); conditions: for Log10 CFU/mL: pH 3.5
Method: Log10 5 CFU of E. coli (ATCC 25922) were suspended in saline. Additionally, a sample of the saline only was prepared as a vehicle control (V.C.). Solutions of Nu-3, Nu-8, and Nu-10 at varying concentrations were adjusted to pH 3.5 with citric acid and added to the E. coli suspensions. At each time point (0, 1, 2.5, 5, 10, and 20 minutes), the treated bacterial suspensions were plated and incubated for 24 hrs, and each plate was read to determine the CFU count.
Tables 12-14 provide the time kill assay data for Nu-3 (Table 12), Nu-8 (Table 13) and Nu-10 (Table 14) against E. coli.

E. coli ATCC 25922 = assay: Bacterial cytological profiling (Example 6), E. coli;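 on cell wall deformations: tested at 1 0.5 and 0.25 times MIC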;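 on effect on cell envelope: tested at 1 0.5 and 0.25 times MIC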
Method: (§3) This bacterial cytological profiling (BCP) study uses methods and materials described previously by Nonejuie, P., Burkart, M., Poglianoa, K., Pogiano, J. (2013). Bacterial cytological profiling rapidly identifies the cellular pathways targeted by antibacterial molecules. Proc. Natl. Acad. Sci. U.S.A. 110(40):16169-16174. doi: 10.1073/pnas.1311066110.
(§4) Wild type strains of E. coli ATCC 25922 or P. aeruginosa K2732 are grown in rich media (unbuffered 2× Lysogeny broth [LB]) at 30 C to an OD600˜0.4. These cultures are then split and each sample treated with the appropriate concentration of Nu-8 in unbuffered or buffered LB (final mixture OD600˜0.1). Cells exposed without Nu-8 are buffered to pH 4 with phosphoric acid.
(§5) The BCP is performed in LB media buffered to pH 4. The minimum inhibitory concentration (MIC) is measured for Nu-3, Nu-4, Nu-5, and Nu-8 against each bacterial strain. As one of ordinary skill in the art understands, minimum inhibitory concentrations are the lowest concentration of an antimicrobial that will inhibit the visible growth of a microorganism after overnight incubation. […] Cellular viability is assayed at three time points (5 minutes and 4 and 24 h following the onset of treatment).
(§6) For imaging E. coli, treated cells are stained with 1 μg/Ml FM4-64, 2 μg/mL DAPI, and 0.5 μM SYTOXGreen (Molecular Probes/Invitrogen). P. aeruginosa samples are stained 0.5 μM SYTOX Green, 28 μg/mL DAPI, and 4.5 μg/mL FM 4-64. Cells are transferred to an agarose pad (20% LB, 1% agarose) for imaging as described in Pogliano, J., Osborne, N., Sharp, M. D., Abanes-De Mello, A., Perez, A., Sun, Y.-L. and Pogliano, K. (1999), A vital stain for studying membrane dynamics in bacteria: a novel mechanism controlling septation during Bacillus subtilis sporulation. Molecular Microbiology, 31: 1149-1159. doi:10.1046/j.1365-2958.1999.01255.x.

P. aeruginosa K2732 = assay: Bacterial cytological profiling (Example 6), P. aeruginosa; conditions: BCP;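 further: tested at 1 0.5 and 0.25 times MIC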
Method: as §3, §4, §5, §6

[2] = system: wild type E. coli (ATCC 25922); assay: Bacterial cytological profiling at pH 4, 5.5, 7 (Example 8), E. coli
Method: (§7) This bacterial cytological profiling (BCP) investigation uses methods and materials described previously by Nonejuie, P., Burkart, M., Poglianoa, K., Pogiano, J. (2013). Bacterial cytological profiling rapidly identifies the cellular pathways targeted by antibacterial molecules. Proc. Natl. Acad. Sci. U.S.A. 110(40):16169-16174. doi: 10.1073/pnas.1311066110.
(§8) For viable cell counts, cells are grown to OD600≈0.4 and diluted 1:1 into buffered or unbuffered media containing various compound concentrations. Samples are then collected and serially diluted (1:10) on a 96 well plate. Five microliters from each well are spotted on LB plates, incubated at 30° C., and viable cells are counted the next day.
(§9) Samples are collected at 10, 30, 120, and 240 min of exposure for viable cell count and imaging. For imaging, E. coli and S. aureus 200 μL of treated cells per time point are stained with 0.8 μg/mL FM4-64, 1.5 μg/mL DAPI, and 0.4 μM SYTOXGreen (Molecular Probes/Invitrogen). P. aeruginosa samples are stained 0.4 μM SYTOX Green, 28 μg/mL DAN, and 1 μg/mL FM 4-64. Cells are transferred to an agarose pad (20% LB, 1% agarose) for imaging.
(§10) For Nu-3 and Nu-8 stocks (at pH 4, 5.5 and 7), stock concentration is 500 mg/mL. For pH 4, the stocks are prepared by dissolving Nu-3 in 25 mM citrate buffer and Nu-8 in 350 mM citric acid. For pH 5.5, the stocks are prepared by dissolving Nu-3 in 25 mM citric-phosphate and Nu-8 in 25 mM critic. For pH 7, the stocks are prepared by dissolving Nu-3 and Nu-8 in 25 mM Sorensen phosphate buffer. 2×LB (lysogeny broth) solutions are prepared with 50 mM citrate buffer for pH 4, 50 mM citrate-phosphate buffer for pH 5.5, and 50 mM Sorensen phosphate buffer for pH 7.

[3] = system: wild type P. aeruginosa (PAO1; K2732); assay: Bacterial cytological profiling at pH 4, 5.5, 7 (Example 8), P. aeruginosa; conditions: pH 5.5 and 7; 112.5 mg/mL
Method: as §7, §8, §9, §10

[4] = system: methicillin susceptible S. aureus (ATCC 29213); assay: Bacterial cytological profiling at pH 4, 5.5, 7 (Example 8), S. aureus
Method: as §7, §8, §9, §10

CCCCOP(=O)(O)OC[C@H]1O[C@@H](n2ccc(N)nc2=O)[C@H](OC)[C@@H]1OP(=O)(O)OCCCC [Nu-10, ((2R,3R,4R,5R)-5-(4-amino-2-oxopyrimidin-1(2H)-yl)-3-((butoxy(hydroxy)phosphoryl)oxy)-4-methoxytetrahydrofuran-2-yl)methyl butyl hydrogen phosphate]
MIC (Candida Albicans): 5000 µg/mL | MIC (Escherichia coli): 1000 µg/mL | MIC (Pseudomonas aeruginosa): 5000 µg/mL | MIC [1]: 5000 µg/mL | Log10 CFU/mL (E. coli (ATCC 25922); 0.1% solution, 0 min): 5.20 Log10 CFU/mL | Log10 CFU/mL (E. coli (ATCC 25922); 0.1% solution, 1 min): 3.78 Log10 CFU/mL | Log10 CFU/mL (E. coli (ATCC 25922); 0.1% solution, 2.5 min): 3.38 Log10 CFU/mL | Log10 CFU/mL (E. coli (ATCC 25922); 0.1% solution, 5 min): 2.57 Log10 CFU/mL | Log10 CFU/mL (E. coli (ATCC 25922); 0.1% solution, 10 min): 0.00 Log10 CFU/mL | Log10 CFU/mL (E. coli (ATCC 25922); 0.1% solution, 20 min): 0.00 Log10 CFU/mL | Log10 CFU/mL (E. coli (ATCC 25922); 0.5% solution, 0 min): 5.20 Log10 CFU/mL | Log10 CFU/mL (E. coli (ATCC 25922); 0.5% solution, 1 min): 2.51 Log10 CFU/mL | Log10 CFU/mL (E. coli (ATCC 25922); 0.5% solution, 2.5 min): 0.00 Log10 CFU/mL | Log10 CFU/mL (E. coli (ATCC 25922); 0.5% solution, 5 min): 0.00 Log10 CFU/mL | Log10 CFU/mL (E. coli (ATCC 25922); 0.5% solution, 10 min): 0.00 Log10 CFU/mL | Log10 CFU/mL (E. coli (ATCC 25922); 0.5% solution, 20 min): 0.00 Log10 CFU/mL | Log10 CFU/mL (E. coli (ATCC 25922); 2.5% solution, 0 min): 5.20 Log10 CFU/mL | Log10 CFU/mL (E. coli (ATCC 25922); 2.5% solution, 1 min): 0.00 Log10 CFU/mL | Log10 CFU/mL (E. coli (ATCC 25922); 2.5% solution, 2.5 min): 0.00 Log10 CFU/mL | Log10 CFU/mL (E. coli (ATCC 25922); 2.5% solution, 5 min): 0.00 Log10 CFU/mL | Log10 CFU/mL (E. coli (ATCC 25922); 2.5% solution, 10 min): 0.00 Log10 CFU/mL | Log10 CFU/mL (E. coli (ATCC 25922); 2.5% solution, 20 min): 0.00 Log10 CFU/mL | time to complete kill of the bacteria (E. coli (ATCC 25922); concentration of 2.5%): ≤ 1 min

CCCCOP(=O)(O)OC[C@H]1O[C@@H](n2cc(C)c(=O)[nH]c2=O)C[C@@H]1OP(=O)(O)OCCCC [Nu-3, reference compound]
effect on cell envelope (E. coli ATCC 25922; BCP): affect the cell envelope | DNA condensation (E. coli ATCC 25922; higher treatment concentrations, buffered pH 4): causes DNA condensation | cell wall deformations (E. coli ATCC 25922; unbuffered LB): cause cell wall deformations | effect on cell envelope (P. aeruginosa K2732): affect the cell envelope | cell viability (cell growth delay) ([2]; pH 4, 112.5 mg/mL, up to 240 min): 10^7 CFR/mL | effect on cell permeability, viability and growth ([2]; pH 5.5 and 7): ineffective | cell growth [3]: no effect on cell growth | increase/change in cell permeability [3]: < 6% | cell growth ([4]; pH 4, 125 mg/mL): slight reduction in cell growth | cell permeability ([4]; pH 4, 125 mg/mL): < 10% | cell permeability ([4]; pH 4, 250 mg/mL): < 10% | cell growth ([4]; pH 5.5 and 7, 125 mg/mL and 250 mg/mL, up to 24 h): slightly reduce cell growth | MIC (Candida Albicans): 25000 µg/mL (≈ 48.6 mM) | MIC (Escherichia coli): 25000 µg/mL (≈ 48.6 mM) | MIC (Pseudomonas aeruginosa): 25000 µg/mL (≈ 48.6 mM) | MIC [1]: > 50000 µg/mL | Log10 CFU/mL (E. coli (ATCC 25922); 2.5% solution, 0 min): 5.20 Log10 CFU/mL | Log10 CFU/mL (E. coli (ATCC 25922); 2.5% solution, 1 min): 3.38 Log10 CFU/mL | Log10 CFU/mL (E. coli (ATCC 25922); 2.5% solution, 2.5 min): 2.55 Log10 CFU/mL | Log10 CFU/mL (E. coli (ATCC 25922); 2.5% solution, 5 min): 1.99 Log10 CFU/mL | Log10 CFU/mL (E. coli (ATCC 25922); 2.5% solution, 10 min): 0.00 Log10 CFU/mL | Log10 CFU/mL (E. coli (ATCC 25922); 2.5% solution, 20 min): 0.00 Log10 CFU/mL | Log10 CFU/mL (E. coli (ATCC 25922); 5% solution, 0 min): 5.20 Log10 CFU/mL | Log10 CFU/mL (E. coli (ATCC 25922); 5% solution, 1 min): 3.00 Log10 CFU/mL | Log10 CFU/mL (E. coli (ATCC 25922); 5% solution, 2.5 min): 2.10 Log10 CFU/mL | Log10 CFU/mL (E. coli (ATCC 25922); 5% solution, 5 min): 0.00 Log10 CFU/mL | Log10 CFU/mL (E. coli (ATCC 25922); 5% solution, 10 min): 0.00 Log10 CFU/mL | Log10 CFU/mL (E. coli (ATCC 25922); 5% solution, 20 min): 0.00 Log10 CFU/mL | Log10 CFU/mL (E. coli (ATCC 25922); 10% solution, 0 min): 5.20 Log10 CFU/mL | Log10 CFU/mL (E. coli (ATCC 25922); 10% solution, 1 min): 2.85 Log10 CFU/mL | Log10 CFU/mL (E. coli (ATCC 25922); 10% solution, 2.5 min): 0.00 Log10 CFU/mL | Log10 CFU/mL (E. coli (ATCC 25922); 10% solution, 5 min): 0.00 Log10 CFU/mL | Log10 CFU/mL (E. coli (ATCC 25922); 10% solution, 10 min): 0.00 Log10 CFU/mL | Log10 CFU/mL (E. coli (ATCC 25922); 10% solution, 20 min): 0.00 Log10 CFU/mL | time to complete kill of the bacteria (E. coli (ATCC 25922); concentration of 10%): ≤ 2.5 min

Source: patent publication US12054509B2, “Antimicrobial compounds, compositions, and uses thereof” (Lakewood Amedex, Inc., priority 2017, dated 2024)
